These results are taken from patent publication US9738591B2, “Antimicrobial compounds” (priority 2009, dated 2017).

≈ marks a conversion by molar mass, not a printed value. A value given as a limit tells only on which side of the number the result lay.

One data set relates to L929 cells. In words: Cytotoxicity, neutral red assay. Format: cell-based. The conditions noted are these: for ratio of the well's OD compared to the OD of the negative control, Average (SD) (n = 2): 24 h, ratios ≦0.5 indicate a cytostatic effect. On the procedure: L929 cells grown to approximately 80% confluency in HGM-M were washed with Hanks, trypsonised to detach the cells from the flask, then diluted to 10^5 cells/ml in HGM-M and 200 μl used to inoculate the wells of a 96-well microtitre tray. After incubation for 24 h at 37° C., adherent cells were washed with Hanks and then 100 μl HGM-M was added to the wells. Fresh TSB007 master stock solution (10 mg/ml) was serially 10-fold diluted in HGM-M to make solutions of 1000, 100, 10 and 1 μg/ml of TSB007. To the wells of the microtitre tray, 100 μl of these TSB007 solutions were also added, giving final concentrations of 500, 50, 5 and 0.5 μg/ml of TSB007. The same dilutions of DMSO were prepared and tested to check that cytotoxic activity was not due to the DMSO. A negative control was prepared containing only HGM-M, and a positive control was prepared by adding 100 μl of carboplatin (10 mg/ml; Mayne Pharma Pty Ltd, Australia) to wells containing 100 μl HGM-M. Controls and dilutions of TSB007 and DMSO were prepared in duplicate.
After 24 h shaking at 37° C., cytotoxicity was quantified using the neutral red assay. The cells were washed with Hanks then 200 μl HGM-M and 20 μl Neutral Red (3.3 g/L; Sigma-Aldrich) were added to each well. After 2 h shaking at 37° C., cells were washed twice with PBS then 200 μl of 1% acetic acid in 50% EtOH was added to each well to solubilise the stain. After 15 min shaking at 37° C. the OD690 nm of the wells was measured and subtracted from the OD540 nm. Results were then blanked against wells to which no cells had been added, and converted to a ratio of the OD of the negative control. Ratios […] indicated a cytostatic effect. Testing was performed on two separate occasions.

Data set [1] has as its system Vibrio cholerae (non-toxigenic) M3695. Briefly: Disk diffusion. To be noted: 10 mg/ml, 20 μl, (other strain?). Format: cell-based.
Data set [2] relates to Yersinia enterocolitica clinical 26609. In words: Disk diffusion. To be noted: 10 mg/ml, 20 μl; repeat, strain clinical 26609. In general terms: Agar diffusion results depend on both activity and mobility in agar.
Data set [3] deals with S. epidermidis ATCC 12228. Briefly: MIC and MBC by broth microdilution. The conditions noted are these: Staphylococcus epidermidis, ATCC12228, CA-MHB, two independent replicates. Format: cell-based. On the technique in general: Dilution methods test growth across graded concentrations, often in twofold steps.
The subject of data set [4] is S. aureus NCTC 10442 (MRSA). Briefly: MIC and MBC by broth microdilution. Format: cell-based. The conditions noted are these: Staphylococcus aureus, CA-MHB, two independent replicates. On the procedure: (§1) The method used was based on CLSI protocols for broth microdilution testing of these species. As recommended by CLSI, inocula were prepared by direct colony suspension, and the media used were cation-adjusted Mueller Hinton broth (CA-MHB) for Staphylococcus spp. and CA-MHB containing 5% lysed horse blood (CA-MHB+LHB) for Streptococcus spp. Briefly, 24 h blood agar plate (BA) cultures of Staphylococcus aureus strains NCTC 6571, ATCC 29213, ATCC 33592 (MRSA) and NCTC 10442 (MRSA), Staphylococcus epidermidis ATCC 29971, Staphylococcus xylosus ATCC 29971, Streptococcus pneumoniae strains ATCC 49619 and ATCC 6305, and Streptococcus pyogenes strains NCTC 8191 and NCTC 8302 were used to prepare 0.5 McFarland suspensions in saline. Two 640 μg/ml working stocks of TSB007 were prepared from a fresh master stock, one in CA-MHB for testing against the Staphylococcus spp. and the other in CA-MHB+LHB for testing against Streptococcus spp. The working stocks were further diluted 1/10 in these broths for adding to microtitre trays to test MICs of 32, 16, 8, 4, 2, 1, 0.5, 0.25, 0.125 and 0.06 μg/ml.
(§2) The wells of two 96-well microtitre trays (one for Staphylococcus spp. and one for Streptococcus spp.) were filled with 100 μl of the appropriate broth, except for the first column. The last column, a sterility control containing no TSB007 or inoculum, was filled with an additional 100 μl broth. Then 100 μl of the 64 μg/ml TSB007 solution was added to the first two columns, the contents of column 2 was mixed, then 100 μl of this was used in two-fold serial dilutions along the rest of the tray except the last two columns. The final 100 μl was discarded. […] Finally, to the first 11 wells of one row per strain, 100 μl of a 10^−2 dilution (in the appropriate broth) of the 0.5 McFarland suspension was added. The microtitre trays were then incubated at 35° C. for 24 h before the MICs were read visually. Wells were further subcultured (10 μl drop onto BA then incubated at 35° C. for 24 h) and colonies subsequently counted to determine minimum bactericidal concentrations (MBCs). The concentration of the initial inoculum was confirmed on BA by counting colonies from 2×10 μl spots of 10^−5 dilutions of the 0.5 McFarland suspensions. Testing was performed on two separate occasions.

The test system of another data set is S. aureus NCTC 6571. Briefly: MIC and MBC by broth microdilution. Format: cell-based. The conditions noted are these: Staphylococcus aureus, NCTC6571, CA-MHB, two independent replicates. As for the experimental part: as §1, §2
The test system of a further data set is S. xylosus ATCC 29971. In words: MIC and MBC by broth microdilution. The conditions noted are these: Staphylococcus xylosus, ATCC29971, CA-MHB, two independent replicates. Format: cell-based. On the procedure: as §1, §2
Data set [5] deals with Escherichia coli NCTC 10538. In words: Disk diffusion. To be noted: 10 mg/ml, 20 μl; repeat; value printed with '?'.
For data set [6], the system named is Klebsiella edwardsii NCTC 10896. Briefly: Disk diffusion. Format: cell-based. The conditions noted are these: 10 mg/ml, 20 μl.
Data set [7] concerns Shigella flexneri NCTC 8192. Briefly: Disk diffusion. Format: cell-based. To be noted: 10 mg/ml, 20 μl; repeat. On the procedure: (§3) Plates were incubated at 35° C.
Data set [8] has as its system Clostridium difficile NCTC 43593. Briefly: Disk diffusion. Format: cell-based. The conditions noted are these: 10 mg/ml, 20 μl, BA - prereduced, anaerobe. On the procedure:
as §3

In data set [9] the test system is Stenotrophomonas maltophilia M2495. In words: Disk diffusion. Format: cell-based. To be noted: 10 mg/ml, 20 μl, strain M2495.
The test system of data set [10] is Bacillus subtilis ATCC 6633. Briefly: Disk diffusion. To be noted: 10 mg/ml, 20 μl.

Usually MIC stands for the least concentration at which growth counts as inhibited. High values mean weaker potency, low ones greater potency. Usually MBC stands for the smallest concentration meeting the test's criterion for killing. A high value points to less potent killing. On to `O=C(O)c1ccc(/C=C/c2cc(/C=C/c3ccc(C(=O)O)cc3)cc(/C=C/c3ccc(C(=O)O)cc3)c2)cc1` [TSB007], for which the “ratio of the well's OD compared to the OD of the negative control, Average (SD) (n = 2)” value is listed as 0.846 (0.285) in the data set with L929 cells (0.5 μg/ml), 0.882 (0.021) with L929 cells (5 μg/ml), 0.867 (0.030) with L929 cells (50 μg/ml) and 0.384 (0.009) in the data set on L929 cells (500 μg/ml). The figures for the “cytostatic effect on L929 cells” value in the data set with L929 cells (500 μg/ml) and in the data set with L929 cells (0.5-50 μg/ml) were “cytostatic” and “not significantly cytostatic”, respectively. The “Zone diameters, Repeat Results” value is given as 7 trim in [1]; 8 trim in [2]; 7.5? trim in [5]; 9 trim in [6]; 8.5 trim in [7]; 9 trim in data set [9]. Moreover, the MIC was 2 to 4 µg/mL (≈ 3.87 to 7.74 µM) in data set [3] (35° C., 24 h); 2 to 4 µg/mL (≈ 3.87 to 7.74 µM) in data set [4] (35° C., 24 h); 2 to 4 µg/mL (≈ 3.87 to 7.74 µM) with S. aureus NCTC 6571 (35° C., 24 h); 8 to 16 µg/mL (≈ 15.5 to 31 µM) against S. xylosus ATCC 29971 (35° C., 24 h). In addition, the MBC in [3] is greater than 32 µg/mL; in [4], greater than 32 µg/mL; in the data set on S. aureus NCTC 6571, greater than 32 µg/mL; in the data set on S. xylosus ATCC 29971 it was 8 to 16 µg/mL (≈ 15.5 to 31 µM). For the same compound, the results for the “Zone diameters, 24 h TSB007” value in data set [8] (24 h) and in data set [10] (24 h) were 10 trim and 8 trim, respectively. The “Zone diameters, 48 h TSB007” value in [8] (48 h) worked out at 10 trim; in data set [10] (48 h) it was 8 trim.
